Assay results from ChEMBL document CHEMBL1201862, “PubChem BioAssay data set” (2004).
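All cell lines were grown in 96-well plates and treated with compound for 48 hours. GI50 = concentration required for 50% inhibition of growth.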 Calls of active or inactive are those of the source. Cut-off read from the data, not from the text of the source: active = GI50 up to about 1.1 µM and inactive = higher.

How the values were obtained:
Experiment in all cases: growth of human tumour cells (NCI), 48 h
786-0 = system: 786-0
A549 = system: A549
BT-549 = system: BT-549
CAKI-1 = system: CAKI-1
HL-60 = system: HL-60
HOP-62 = system: HOP-62
K562 = system: K562
Malme-3M = system: Malme-3M
NCI-H460 = system: NCI-H460
NCI-H522 = system: NCI-H522
RXF 393 = system: RXF 393
SF-295 = system: SF-295
SK-MEL-2 = system: SK-MEL-2
SK-MEL-5 = system: SK-MEL-5
SK-OV-3 = system: SK-OV-3
SNB-19 = system: SNB-19
UACC-62 = system: UACC-62
UO-31 = system: UO-31
HOP-92 = system: HOP-92

Row | Compound | GI50 (786-0) | GI50 (A549) | GI50 (BT-549) | GI50 (CAKI-1) | GI50 (HL-60) | GI50 (HOP-62) | GI50 (K562) | GI50 (Malme-3M) | GI50 (NCI-H460) | GI50 (NCI-H522) | GI50 (RXF 393) | GI50 (SF-295) | GI50 (SK-MEL-2) | GI50 (SK-MEL-5) | GI50 (SK-OV-3) | GI50 (SNB-19) | GI50 (UACC-62) | GI50 (UO-31) | GI50 (HOP-92)
1 | N#CC(c1ccccc1)(c1ccccc1)[C@@H](c1ccccc1)[C@H](Cc1ccccc1)NS(=O)(=O)c1ccccc1 | > 100 µM (inactive) | > 100 µM (inactive) | > 100 µM (inactive) | > 100 µM (inactive) | 4.17 µM (inactive) | > 100 µM (inactive) | > 100 µM (inactive) | > 100 µM (inactive) | 66.7 µM (inactive) | > 100 µM (inactive) | 84.7 µM (inactive) | > 100 µM (inactive) | > 100 µM (inactive) | 96.2 µM (inactive) | > 100 µM (inactive) | > 100 µM (inactive) | > 100 µM (inactive) | > 100 µM (inactive) | 
2 | c1ccc2c3nnc(c2c1)SCCCSc1nnc(c2ccccc12)SCCCS3 | 54.1 µM (inactive) | 58.5 µM (inactive) |  |  | > 100 µM (inactive) | 24.2 µM (inactive) | > 100 µM (inactive) | 34.8 µM (inactive) | 34.4 µM (inactive) | 42.5 µM (inactive) | 33.3 µM (inactive) | 92.3 µM (inactive) | 40.1 µM (inactive) | 23 µM (inactive) | > 100 µM (inactive) | 28.8 µM (inactive) | 31.7 µM (inactive) | > 100 µM (inactive) | 32.9 µM (inactive)
3 | O=C(Oc1ccc(OC(Oc2ccccc2)c2ccccc2)cc1)c1ccccc1 (stereo not given) | > 31.6 µM (inactive) | 21.1 µM (inactive) | 26.5 µM (inactive) | > 10 µM (inactive) | 16.3 µM (inactive) | 13.9 µM (inactive) | > 31.6 µM (inactive) | 13.2 µM (inactive) | > 63.2 µM (inactive) | 49.2 µM (inactive) | > 92.3 µM (inactive) | 14.7 µM (inactive) | 17.3 µM (inactive) | 22.1 µM (inactive) | 27.2 µM (inactive) | > 31.6 µM (inactive) | > 31.6 µM (inactive) | 16 µM (inactive) | 
4 | COc1cc(OC)c(C/C=C/c2ccccc2)cc1O | 18.2 µM (inactive) | 19.4 µM (inactive) | 16.1 µM (inactive) | 21.5 µM (inactive) | 19.3 µM (inactive) |  | 14.4 µM (inactive) | 16.2 µM (inactive) | 17.3 µM (inactive) | 12.6 µM (inactive) |  |  | 19.4 µM (inactive) | 15.8 µM (inactive) |  | 15.9 µM (inactive) | 15.5 µM (inactive) | 14.7 µM (inactive) | 13.6 µM (inactive)
5 | CC1(C)[C@H]2CC[C@@]13C(=O)N1C(=O)O[C@@H]([C@H]1Cl)C(Cl)(COCc1ccccc1)C(=O)OCCO[C@H]3C2 (stereo not given in full) | 70 µM (inactive) | 54.3 µM (inactive) | 61.2 µM (inactive) | > 100 µM (inactive) | 35.2 µM (inactive) | > 100 µM (inactive) | 24.3 µM (inactive) | 60.8 µM (inactive) | 53.6 µM (inactive) | 34.8 µM (inactive) |  | 51.1 µM (inactive) | 85.5 µM (inactive) | 29.9 µM (inactive) | > 100 µM (inactive) | > 100 µM (inactive) | 83.6 µM (inactive) | 96.4 µM (inactive) | > 100 µM (inactive)
6 | CC1(C)O[C@@H]2[C@@H](COC(C)(C)O[C@H]2C2SCCCS2)O1 | > 100 µM (inactive) | > 100 µM (inactive) |  | > 100 µM (inactive) |  | > 100 µM (inactive) | > 100 µM (inactive) | > 100 µM (inactive) | > 100 µM (inactive) | > 100 µM (inactive) | > 100 µM (inactive) | > 100 µM (inactive) | > 100 µM (inactive) | > 100 µM (inactive) | > 100 µM (inactive) | > 100 µM (inactive) | > 100 µM (inactive) | > 100 µM (inactive) | 92.7 µM (inactive)
7 | CCOP(=O)(OCC)C(Nc1ccc(Br)cc1)c1cccc([N+](=O)[O-])c1 (stereo not given) | 20.4 µM (inactive) | 15.8 µM (inactive) |  | 22.1 µM (inactive) | 20 µM (inactive) | 17.5 µM (inactive) | 12 µM (inactive) | 18.2 µM (inactive) | 14.1 µM (inactive) | 13.6 µM (inactive) | 14.4 µM (inactive) | 12.9 µM (inactive) | 16.7 µM (inactive) | 14.6 µM (inactive) | 14.6 µM (inactive) | 24.9 µM (inactive) | 14.7 µM (inactive) | 10.8 µM (inactive) | 20.7 µM (inactive)
8 | CN(C)/N=N/c1nc2c(c(=O)n(C)c(=O)n2C)n1CC(O)CO (stereo not given) | > 100 µM (inactive) | > 100 µM (inactive) | > 100 µM (inactive) | > 100 µM (inactive) | > 100 µM (inactive) | > 100 µM (inactive) | > 100 µM (inactive) | > 100 µM (inactive) | > 100 µM (inactive) | > 100 µM (inactive) | > 100 µM (inactive) | > 100 µM (inactive) | > 100 µM (inactive) | > 100 µM (inactive) | > 100 µM (inactive) | > 100 µM (inactive) | > 100 µM (inactive) | > 100 µM (inactive) | 
9 | COc1ccc(-c2cc(-c3ccc(Nc4ccnc5cc(C(F)(F)F)ccc45)cc3)[nH]c(=O)c2C#N)cc1 | 14.1 µM (inactive) | > 100 µM (inactive) | > 52 µM (inactive) | > 100 µM (inactive) | > 100 µM (inactive) |  | 33.8 µM (inactive) | > 100 µM (inactive) | > 100 µM (inactive) | > 100 µM (inactive) | > 32.7 µM (inactive) | > 32.7 µM (inactive) | > 50.6 µM (inactive) | 99.8 µM (inactive) |  | 16.4 µM (inactive) | 62.4 µM (inactive) |  | 49.7 µM (inactive)
10 | Nc1c(-c2nc3ccccc3s2)c2ccc([N+](=O)[O-])cc2c(=O)n1-c1cccc(C(=O)O)c1 | 31.7 µM (inactive) | 34.9 µM (inactive) | 20.1 µM (inactive) | 27.5 µM (inactive) | 18.1 µM (inactive) |  |  |  | 27 µM (inactive) | 37.8 µM (inactive) |  |  | 20.9 µM (inactive) | 26.7 µM (inactive) |  | 19.8 µM (inactive) | 21 µM (inactive) | 24.1 µM (inactive) | 24.2 µM (inactive)
11 | O=[N+]([O-])c1ccc(C(c2c[nH]c3ccccc23)c2c[nH]c3ccccc23)cc1 | 14.3 µM (inactive) | 6.82 µM (inactive) | 4.97 µM (inactive) |  | 17.7 µM (inactive) | 13.5 µM (inactive) | 6.61 µM (inactive) | 15.5 µM (inactive) | 3.57 µM (inactive) |  |  | 22.6 µM (inactive) | 7.31 µM (inactive) | 5.97 µM (inactive) | 16.8 µM (inactive) | 15.7 µM (inactive) | 10.5 µM (inactive) | 10.9 µM (inactive) | 
12 | Cc1ccc(S(=O)(=O)NNC(=O)Nc2ccc([N+](=O)[O-])cc2)cc1 | 24.9 µM (inactive) | 35.6 µM (inactive) | 78.9 µM (inactive) | 65.8 µM (inactive) | 36.1 µM (inactive) | 27.9 µM (inactive) | 38.4 µM (inactive) | 76 µM (inactive) | 23.9 µM (inactive) | 26.5 µM (inactive) | > 100 µM (inactive) | 36.6 µM (inactive) | > 100 µM (inactive) | 29 µM (inactive) |  | 69.5 µM (inactive) | 22.8 µM (inactive) | 47 µM (inactive) | 43.8 µM (inactive)
13 | CCOP(=O)(OCC)/C(C#N)=C/c1ccc(-c2cc(C(F)(F)F)cc(C(F)(F)F)c2)o1 | 12.2 µM (inactive) | 14.4 µM (inactive) | 25.7 µM (inactive) |  | 3.4 µM (inactive) | 14.5 µM (inactive) | 3.3 µM (inactive) |  | 6.38 µM (inactive) | 10.4 µM (inactive) |  | 1.82 µM (inactive) | 20.3 µM (inactive) |  |  | 16 µM (inactive) |  | 16.8 µM (inactive) | 8.41 µM (inactive)
14 | O/N=N/c1ccc([SH2]c2ccc3ccccc3c2)cn1 | 31.3 µM (inactive) | 33 µM (inactive) | 23 µM (inactive) | 17.7 µM (inactive) | 3.97 µM (inactive) | 15.1 µM (inactive) | 16.8 µM (inactive) | 0.955 µM (active) | 15.4 µM (inactive) | 17.5 µM (inactive) | < 0.01 µM (active) | 25.8 µM (inactive) | 15.4 µM (inactive) | 16.3 µM (inactive) | 43.9 µM (inactive) | 40.2 µM (inactive) | 27.6 µM (inactive) | 24.6 µM (inactive) | 
15 | Cc1cc2c(cc1O)CC[C@@H]1[C@@H]2CC[C@]2(C)[C@@H](O)CC[C@@H]12 | 14.6 µM (inactive) | 8.02 µM (inactive) | 6.27 µM (inactive) | 16.9 µM (inactive) | 1.73 µM (inactive) |  | 2.58 µM (inactive) | 6.73 µM (inactive) | 8.65 µM (inactive) | 7.45 µM (inactive) |  | 6.08 µM (inactive) | 5.48 µM (inactive) | 4.67 µM (inactive) | 11.5 µM (inactive) | 12.6 µM (inactive) |  | 14.8 µM (inactive) | 14.9 µM (inactive)
16 | Clc1ccc(COC(Cn2ccnc2)c2ccc(Cl)cc2Cl)c(Cl)c1 (stereo not given) [MICONAZOLE] | 7.33 µM (inactive) | 9.64 µM (inactive) | 15 µM (inactive) | 13.6 µM (inactive) | 3.78 µM (inactive) | 13.5 µM (inactive) | 3.66 µM (inactive) | 14.9 µM (inactive) | 17.5 µM (inactive) | 10 µM (inactive) |  | 11.2 µM (inactive) | 16.2 µM (inactive) |  | 14.3 µM (inactive) | 13.4 µM (inactive) | 11.5 µM (inactive) | 3.82 µM (inactive) | 11.4 µM (inactive)
